Laboratory results published in ChEMBL document CHEMBL3227980, “Optically pure (+)-nicotine from (+/-)-nicotine and biological comparisons with (-)-nicotine” (J Med Chem, 1979).

Tests used:
[1] = Toxicity in iv dosed ICR mouse assessed as lethality; conditions: in vivo
[2] = in vivo; conditions: ICR, mouse, iv

CN1CCC[C@H]1c1cccnc1.O=C(O)C(O)C(O)C(=O)O.O=C(O)C(O)C(O)C(=O)O
LD50 [1]: 0.38 mg/kg | selectivity ratio [2]: 7.24

CN1CCC[C@@H]1c1cccnc1.O=C(O)C(O)C(O)C(=O)O.O=C(O)C(O)C(O)C(=O)O
LD50 [1]: 2.75 mg/kg
